Experimental findings from patent US9796764B2, “Cyclotide genes in the fabaceae plant family” (The University of Queensland, priority 2011, dated 2017) are described below.

Where a SMILES comes first, the peptide text is derived from it. Bounds are passed on as bounds.

A short description of data set [1]: Haemolytic activity assay. Type of data set: cell-based, human. The following applies: washed human red blood cells; % of maximum lysis (1% Triton X-100); read-out: haemolytic dose necessary to lyse 50% of the RBCs (HD50). The procedure: (§1) Serially diluted peptide solutions were incubated with washed human red blood cells. Following incubation, the supernatant was transferred before the UV absorbance was measured. The amount of haemolysis was calculated as the percentage of maximum lysis (1% Triton X-100 control) after adjusting for minimum lysis (PBS control). Synthetic melittin was used for comparison. The haemolytic dose necessary to lyse 50% of the RBCs (HD50) was calculated using the regression constant from the linear portion of the haemolytic titration curve (Graphpad Prism software).

The next data set relates to human red blood cells. The data set can be described thus: Haemolytic activity assay. The data set is classed as cell-based. The following applies: human red blood cells. The procedure: as §1
Data set [2] relates to L3-stage larvae of Haemonchus contortus. The data set can be described thus: Larval migration (motility) assay. The data set is classed as cell-based. Conditions: against Haemonchus contortus. The procedure:
The effect of kB1 and Cter M on the motility of L3-stage larvae of Haemonchus contortus was assessed using a previously described method (Colgrave, et al., 2010, Antimicrob. Agents Ch. 54:2160-2166). The larvae were incubated in PBS containing a range of peptide concentrations for 24 h in the dark in a 96-well plate format. The motility of the worms was assessed wherein sinusoidal motion was indicative of health and loss of motility or the degree of motility was indicative of poor health. Nematodes that had been incubated with cyclotides were compared to control (no-peptide) wells.

The subject of data set [3] is Helicoverpa armigera larvae. The data set can be described thus: Insecticidal feeding trial. Conditions: against the cotton budworm Helicoverpa armigera. The data set is classed as in vivo. The procedure: H. armigera larvae were obtained from the Queensland Department of Employment, Economic Development & Innovation. A feeding trial was conducted for 48 h with larvae maintained at 25° C. throughout the experiment. Larvae were given diets consisting of wheat germ, yeast, and soy flour.

Data set [4] is described as follows: Binding to immobilized lipid vesicles (sensorgram). The following applies: PE membranes.
Data set [5] is described as follows: Heat denaturation, NMR spectra before and after heating. Type of data set: physicochemical. Conditions: 95° C. for 5 minutes. From the text:
(B) Superposition of the 20 lowest energy structures of Cter M. Secondary structure of Cter M (C) and PA1b (E; PDB code 1P8B). The strands are shown as arrows and the helical turns as thickened ribbons. The disulfide bonds are shown in ball-and-stick format. The structure figures were generated using MOLMOL (Koradi, R., Billeter, M. & Wüthrich, K. (1996) J. Mol. Graph. 14, 29-32). Superimposition of Cter M and PA1b (D) showing cystine knot motif; disulfide bonds are indicated, and the aC are represented by spheres.
The structure of Cter M is extremely stable evidenced by its resistance to heat denaturation. […] An ensemble and ribbon representation of the three dimensional structure is shown in FIG. 14 along with a comparison with PA1b, the pea albumin whose precursor shares high sequence homology with the Cter gene.

A further data set concerns the target T1, trypsin (Bos taurus, UniProt P00760).
T1 construct: purchased Sigma T1426
T1 sequence (P00760 24-246): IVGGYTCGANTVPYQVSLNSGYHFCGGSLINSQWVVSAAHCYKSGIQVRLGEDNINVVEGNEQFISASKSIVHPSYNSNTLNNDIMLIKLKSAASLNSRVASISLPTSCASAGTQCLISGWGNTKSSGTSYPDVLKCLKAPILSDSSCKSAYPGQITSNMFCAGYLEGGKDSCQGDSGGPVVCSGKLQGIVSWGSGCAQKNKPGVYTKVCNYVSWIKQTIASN
The data set can be described thus: Proteolysis by trypsin (MS of leaf extract). The data set is classed as in vitro ADME. Conditions: native Cter M in leaf extract. The text has this: (§2) The reduced and alkylated peptide, m/z 3407.6 (E, G, I) underwent proteolytic cleavage by trypsin (F) and chymotrypsin (H, J). As there is only a single tryptic site, the trypsin digestion product is observed at m/z 3424.6, whereas there were three chymotryptic sites resulting in the formation of major products at m/z 1450.7, 1511.7 and 1931.8 corresponding to KNGLPTCGETCL (SEQ ID NO:129), VPDCSCSWPICM (SEQ ID NO:130) and KNGLPTCGETCLGTCY (SEQ ID NO:131) respectively.

In a further data set the test system is chymotrypsin. The data set can be described thus: Proteolysis by chymotrypsin (MS of leaf extract). Type of data set: in vitro ADME. The following applies: native Cter M in leaf extract.
Text: as §2

The nature of data set [6]: Solubility of the synthetic peptide. The data set is classed as physicochemical. The procedure: Synthesis Cter M was synthesized using solid phase peptide synthesis and folded using conditions earlier established for other cyclotides (Daly, N. L., et al., (1999) Biochemistry 38, 10606-10614) including the use of 50% isopropanol in buffer. […] The NMR spectra of the native and synthetic Cter M peptides were recorded and found to be identical. The three-dimensional structure of Cter M was calculated with 398 distance restraints and 11 angle restraints using a simulated annealing protocol in CNS.

As to `CC[C@H](C)[C@@H]1NC(=O)[C@@H]2CCCN2C(=O)[C@H](Cc2c[nH]c3ccccc23)NC(=O)[C@H](CO)NC(=O)[C@@H]2CSSC[C@@H]3NC(=O)[C@H]([C@@H](C)O)NC(=O)[C@H](CCC(=O)O)NC(=O)CNC(=O)[C@@H]4CSSC[C@H](NC(=O)[C@H](CC(=O)O)NC(=O)[C@@H]5CCCN5C(=O)[C@H](C(C)C)NC(=O)[C@H](Cc5ccc(O)cc5)NC(=O)[C@H](CSSC[C@H](NC1=O)C(=O)N[C@@H](CCSC)C(=O)N[C@@H](CCCCN)C(=O)N[C@@H](CC(N)=O)C(=O)NCC(=O)N[C@@H](CC(C)C)C(=O)N1CCC[C@H]1C(=O)N[C@@H]([C@@H](C)O)C(=O)N4)NC(=O)[C@H]([C@@H](C)O)NC(=O)CNC(=O)[C@H](CC(C)C)NC(=O)[C@H]([C@@H](C)O)NC3=O)C(=O)N[C@@H](CO)C(=O)N2` [Cter M] (HELM PEPTIDE1{C.G.E.T.C.T.L.G.T.C.Y.V.P.D.C.S.C.S.W.P.I.C.M.K.N.G.L.P.T}$PEPTIDE1,PEPTIDE1,1:R3-15:R3|PEPTIDE1,PEPTIDE1,5:R3-17:R3|PEPTIDE1,PEPTIDE1,10:R3-22:R3|PEPTIDE1,PEPTIDE1,1:R1-29:R2$$$V2.0), in data set [1], the HC50 was above 100 µM. In addition, the “haemolytic activity” value in the data set on human red blood cells is recorded as “mildly haemolytic”. Moreover, the anthelmintic activity entry in data set [2] is “anthelmintic activity”. The insecticidal activity result in data set [3] is “insecticidal activity”. In data set [4], the membrane binding entry is “binds to PE membranes”. Further, the “resistance to heat denaturation (change in NMR spectra)” value in data set [5] is given as “no changes were observed in the spectra”. Further, at trypsin, the hydrolysis by trypsin entry is on record as “no observed hydrolysis”. Moreover, the hydrolysis by chymotrypsin entry in the data set on chymotrypsin is given as “no observed hydrolysis”. For the same compound, in data set [6] (addition of acetonitrile), the “solubility on addition of acetonitrile” value is “greatly improved the solubility”. Moreover, the solubility in water entry in data set [6] (water) is listed as “relatively low solubility in water”.

For `CC(C)C[C@@H]1NC(=O)CNC(=O)[C@H](CC(N)=O)NC(=O)[C@H](CCCNC(=N)N)NC(=O)[C@H]([C@@H](C)O)NC(=O)[C@@H]2CSSC[C@@H]3NC(=O)[C@H]([C@@H](C)O)NC(=O)CNC(=O)CNC(=O)[C@H](C(C)C)NC(=O)[C@@H]4CSSC[C@H](NC(=O)[C@H]([C@@H](C)O)NC(=O)[C@H](CSSC[C@H](NC(=O)[C@H](C(C)C)NC(=O)[C@@H]5CCCN5C1=O)C(=O)NCC(=O)N[C@@H](CCC(=O)O)C(=O)N[C@@H]([C@@H](C)O)C(=O)N4)NC(=O)CNC(=O)[C@@H]1CCCN1C(=O)[C@H]([C@@H](C)O)NC(=O)[C@H](CC(N)=O)NC3=O)C(=O)N[C@@H](CO)C(=O)N[C@@H](Cc1c[nH]c3ccccc13)C(=O)N1CCC[C@H]1C(=O)N[C@@H](C(C)C)C(=O)N2` [kB1, kalata B1, reference compound], the HC50 in data set [1] amounted to 7.8 µM.
